# Measured values reported in patent publication US9511058B2, “Methods for using carboxamide, sulfonamide and amine compounds” (Rigel Pharmaceuticals, Inc., priority 2010, dated 2016).
# Molecular target: AMPK
# Experiment: AMPK activation, enzyme-linked immunosorbent assay
# Type: biochemical
# [1] = compounds of Table 5 (Table 10)
EC50 (compounds of Table 1 (Table 6)) [nM],SMILES,also measured
< 100,"O=C(NC1CCN(Cc2ccc(F)cc2)CC1)c1ccc(OC2CCN(c3ccc(C(F)(F)F)cc3)CC2)nc1 [1-11, N-(1-(4-fluorobenzyl)piperidin-4-yl)-6-(1-(4-(trifluoromethyl)phenyl)piperidin-4-yloxy)nicotinamide]",–
100 to 500,"N#Cc1ccc(CN2CCC(NC(=O)c3ccc(OC4CCN(c5ccc(C(F)(F)F)cc5)CC4)nc3)CC2)cc1 [1-35, N-(1-(4-cyanobenzyl)piperidin-4-yl)-6-(1-(4-(trifluoromethyl)phenyl)piperidin-4-yloxy)nicotinamide]",–
< 100,"Cc1c(C(=O)NC2CCN(Cc3ccncc3)CC2)oc2cc(OC3CCN(c4ccc(C(F)(F)F)cc4)CC3)ccc12 [1-65, 3-methyl-N-(1-(pyridin-4-ylmethyl)piperidin-4-yl)-6-(1-(4-(trifluoromethyl)phenyl)piperidin-4-yloxy)benzofuran-2-carboxamide]",–
1000 to 5000,"O=C(N[C@@H]1CCN(C(=O)c2ccncc2)C1)c1cc2cc(OC3CCN(c4ccc(C(F)(F)F)cc4)CC3)ccc2o1 [1-125, (R)-N-(1-isonicotinoylpyrrolidin-3-yl)-5-(1-(4-(trifluoromethyl)phenyl)piperidin-4-yloxy)benzofuran-2-carboxamide]",–
100 to 500,"O=S(=O)(NC1CCN(Cc2ccncc2)CC1)c1ccc(OC2CCN(c3ccc(C(F)(F)F)cc3)CC2)nc1 [1-51, N-(1-(pyridin-4-ylmethyl)piperidin-4-yl)-6-(1-(4-(trifluoromethyl)phenyl)piperidin-4-yloxy)pyridine-3-sulfonamide]",–
100 to 500,"CC(C)(C)OC(=O)N1CC[C@H](NC(=O)c2ccc(OC3CCN(c4ccc(C(F)(F)F)cc4)CC3)cn2)C1 [1-26, (S)-tert-butyl 3-(5-(1-(4-(trifluoromethyl)phenyl)piperidin-4-yloxy)picolinamido)pyrrolidine-1-carboxylate]",–
–,"CC(C)(C)OC(=O)N1CCC(Oc2ccc(C(=O)NC3CCN(Cc4ccccc4)CC3)cc2Cl)CC1 [5-90, tert-butyl 4-(4-(1-benzylpiperidin-4-ylcarbamoyl)-2-chlorophenoxy)piperidine-1-carboxylate]",EC50 [1]: 1000 to 10000 nM
–,"NC(=O)c1ccc(CN2CCc3[nH]c4ccc(C(=O)NC5CCN(Cc6ccc(F)cc6)CC5)cc4c3C2)cc1 [2-48, 2-(4-carbamoylbenzyl)-N-(1-(4-fluorobenzyl)piperidin-4-yl)-2,3,4,5-tetrahydro-1H-pyrido [4,3-b]indole-8-carboxamide]",EC50 (compounds of Table 2 (Table 7)): > 100000 nM
< 100,"O=C(NC1CCN(Cc2ccncc2)CC1)c1cc2ccc(OC3CCN(c4ccc(C(F)(F)F)cc4)CC3)cc2o1 [1-87, N-(1-(pyridin-4-ylmethyl)piperidin-4-yl)-6-(1-(4-(trifluoromethyl)phenyl)piperidin-4-yloxy)benzofuran-2-carboxamide]",–
–,"O=C(NC1CCN(Cc2ccccc2)CC1)c1ccc(OC2CCN(Cc3ccc(F)cc3)CC2)c(Cl)c1 [5-19, N-(1-benzylpiperidin-4-yl)-3-chloro-4-(1-(4-fluorobenzyl)piperidin-4-yloxy)benzamide]",EC50 [1]: < 1000 nM
–,"COc1cc(C(=O)NC2CCN(Cc3ccccc3)CC2)ccc1OC1CCN(S(C)(=O)=O)CC1 [5-9, N-(1-benzylpiperidin-4-yl)-3-methoxy-4-(1-(methylsulfonyl)piperidin-4-yloxy)benzamide]",EC50 [1]: 20000 to 50000 nM
100 to 500,"O=C(N[C@@H]1CCN(Cc2cccnc2)C1)c1cc2cc(OC3CCN(c4ccc(C(F)(F)F)cc4)CC3)ccc2o1 [1-123, (R)-N-(1-(pyridin-3-ylmethyl)pyrrolidin-3-yl)-5-(1-(4-(trifluoromethyl)phenyl)piperidin-4-yloxy)benzofuran-2-carboxamide]",–
–,"N#Cc1ccc(N2CCC(Oc3ccc(C(=O)NC4CCN(Cc5ccc(Cl)cc5)CC4)cc3F)CC2)cc1 [5-81, N-(1-(4-chlorobenzyl)piperidin-4-yl)-4-(1-(4-cyanophenyl)piperidin-4-yloxy)-3-fluorobenzamide]",EC50 [1]: < 1000 nM
< 100,"N#Cc1ccc(CN2CCC(Oc3ccc4oc(C(=O)NC5CCN(Cc6ccccc6)CC5)cc4c3)CC2)cc1 [1-70, N-(1-benzylpiperidin-4-yl)-5-(1-(4-cyanobenzyl)piperidin-4-yloxy)benzofuran-2-carboxamide]",–
100 to 500,"O=C(NC1CCN(Cc2ccccn2)CC1)c1sc2cc(OC3CCN(c4ccc(C(F)(F)F)cc4)CC3)ccc2c1Cl [1-153, 3-chloro-N-(1-(pyridin-2-ylmethyl)piperidin-4-yl)-6-(1-(4-(trifluoromethyl)phenyl)piperidin-4-yloxy)benzo[b]thiophene-2-carboxamide]",–
1000 to 5000,"O=C(NC1CCN(Cc2cn(C(c3ccccc3)(c3ccccc3)c3ccccc3)cn2)CC1)c1ccc(OC2CCN(c3ccc(C(F)(F)F)cc3)CC2)cn1 [1-47, 5-(1-(4-(trifluoromethyl)phenyl)piperidin-4-yloxy)-N-(1-((1-trityl-1H-imidazol-4-yl)methyl)piperidin-4-yl)picolinamide]",–
–,"COc1cc(C(=O)NC2CCN(Cc3ccccc3)CC2)ccc1OC1CCN(Cc2ccccc2)CC1 [5-2, N-(1-benzylpiperidin-4-yl)-4-(1-benzylpiperidin-4-yloxy)-3-methoxybenzamide]",EC50 [1]: < 1000 nM

EC50 (compounds of Table 1 (Table 6)) [nM],SMILES,also measured
–,"N#Cc1ccc(CN2CCC(NC(=O)c3ccc4[nH]c5c(c4c3)CN(S(=O)(=O)c3cccnc3)CC5)CC2)cc1 [2-26, N-(1-(4-cyanobenzyl)piperidin-4-yl)-2-(pyridin-3-ylsulfonyl)-2,3,4,5-tetrahydro-1H-pyrido[4,3-b] indole-8-carboxamide]",EC50 (compounds of Table 2 (Table 7)): 10000 to 50000 nM
–,"NC(=O)c1ccc(CN2CCC(NC(=O)c3ccc4[nH]c5c(c4c3)CN(Cc3ccc(C(F)(F)F)cc3)CC5)CC2)cc1 [2-52, N-(1-(4-carbamoyl-benzyl)piperidin-4-yl)-2-(4-(trifluoromethyl)benzyl)-2,3,4,5-tetrahydro-1H-pyrido [4,3-b]indole-8-carboxamide]",EC50 (compounds of Table 2 (Table 7)): 1000 to 5000 nM
1000 to 5000,"O=C(NC1CCN(Cc2ccncc2)CC1)c1cccc(OC2CCN(c3ccc(C(F)(F)F)cc3)CC2)n1 [1-43, N-(1-(pyridin-4-ylmethyl)piperidin-4-yl)-6-(1-(4-(trifluoromethyl)phenyl)piperidin-4-yloxy)picolinamide]",–
1000 to 5000,"FC(F)(F)c1ccc(N2CCC(Oc3ccc4c(c3)CCC4NC3CCNCC3)CC2)cc1 (stereo not shown) [1-157, N-(5-(1-(4-(trifluoromethyl)phenyl)piperidin-4-yloxy)-2,3-dihydro-1H-inden-1-yl)piperidin-4-amine]",–
–,"COC(=O)c1ccc(CN2CCC(NC(=O)c3ccc(OC4CCN(c5ccc(C(F)(F)F)cc5)CC4)c(F)c3)CC2)cc1 [5-33, methyl 4-((4-(3-fluoro-4-(1-(4-(trifluoromethyl)phenyl)piperidin-4-yloxy)benzamido)piperidin-1-yl)methyl)benzoate]",EC50 [1]: < 1000 nM
–,"Cc1ccc(CN2CCC(Oc3ccc(C(=O)NC4CCN(Cc5ccc(F)cc5)CC4)cc3Cl)CC2)cc1 [5-68, 3-chloro-N-(1-(4-fluorobenzyl)piperidin-4-yl)-4-(1-(4-methylbenzyl)piperidin-4-yloxy)benzamide]",EC50 [1]: < 1000 nM
–,"O=C(NC1CCN(Cc2ccccc2)CC1)c1cccc(OC2CCN(c3ccc(C(F)(F)F)cc3)CC2)c1 [5-46, N-(1-benzylpiperidin-4-yl)-3-(1-(4-(trifluoromethyl)phenyl)piperidin-4-yloxy)benzamide]",EC50 [1]: < 1000 nM
–,"O=C(N[C@H]1CCN(Cc2ccc(Cl)cc2)C1)c1ccc(C(=O)N2CCN(c3ccc(Cl)cc3)CC2)cn1 [4-7, N-(1-(4-chlorobenzyl)pyrrolidin-3-yl)-5-(4-(4-chlorophenyl)piperazine-1-carbonyl)picolinamide]",EC50 (compounds of Table 4 (Table 9)): 1000 to 5000 nM
–,"NC(=O)c1ccc(CN2CCc3[nH]c4ccc(C(=O)NC5CCN(C(=O)c6ccncc6)CC5)cc4c3C2)cc1 [2-46, 2-(4-carbamoylbenzyl)-N-(1-isonicotinoylpiperidin-4-yl)-2,3,4,5-tetrahydro-1H-pyrido [4,3-b]indole-8-carboxamide]",EC50 (compounds of Table 2 (Table 7)): > 100000 nM
< 100,"N#Cc1ccc(CN2CCC(NC(=O)c3cc4ccc(OC5CCN(c6ccc(C(F)(F)F)cc6)CC5)cc4s3)CC2)cc1 [1-144, N-(1-(4-cyanobenzyl)piperidin-4-yl)-6-(1-(4-(trifluoromethyl)phenyl)piperidin-4-yloxy)benzo[b]thiophene-2-carboxamide]",–
100 to 500,"Fc1ccc(CN2CCC(NC3CCc4cc(OC5CCN(c6ccc(C(F)(F)F)cc6)CC5)ccc43)CC2)cc1 (stereo not shown) [1-159, 1-(4-fluorobenzyl)-N-(5-(1-(4-(trifluoromethyl)phenyl)piperidin-4-yloxy)-2,3-dihydro-1H-inden-1-yl)piperidin-4-amine]",–
–,"N#Cc1ccc(N2CCC(Oc3ccc(C(=O)NC4CCN(Cc5ccncc5)CC4)cc3F)CC2)cc1 [5-44, 4-(1-(4-cyanophenyl)piperidin-4-yloxy)-3-fluoro-N-(1-(pyridin-4-ylmethyl)piperidin-4-yl)benzamide]",EC50 [1]: < 1000 nM
< 100,"N#Cc1ccc(N2CCC(Oc3ccc4oc(C(=O)NC5CCN(Cc6ccccc6)CC5)cc4c3)CC2)cc1 [1-71, N-(1-benzylpiperidin-4-yl)-5-(1-(4-cyanophenyl)piperidin-4-yloxy)benzofuran-2-carboxamide]",–
1000 to 5000,"O=C(NC1CCN(Cc2ccccc2)CC1)c1ccc(OC2CCN(c3ccc(C(F)(F)F)cc3)CC2)cn1 [1-38, N-(1-benzylpiperidin-4-yl)-5-(1-(4-(trifluoromethyl)phenyl)piperidin-4-yloxy)picolinamide]",–
–,"Cn1cnc(CN2CCC(NC(=O)c3ccc4[nH]c5c(c4c3)CN(Cc3ccc(C(F)(F)F)cc3)CC5)CC2)c1 [2-53, N-(1-((1-methyl-1H-imidazol-4-yl)methyl)piperidin-4-yl)-2-(4-(trifluoromethyl)benzyl)-2,3,4,5-tetrahydro-1H-pyrido [4,3-b]indole-8-carboxamide]",EC50 (compounds of Table 2 (Table 7)): 10000 to 50000 nM
< 100,"Cc1c(C(=O)NC2CCN(Cc3ccccc3C#N)CC2)oc2cc(OC3CCN(c4ccc(C(F)(F)F)cc4)CC3)ccc12 [1-67, N-(1-(2-cyanobenzyl)piperidin-4-yl)-3-methyl-6-(1-(4-(trifluoromethyl)phenyl)piperidin-4-yloxy)benzofuran-2-carboxamide]",–
–,"O=C(NC1CCN(S(=O)(=O)c2ccc(Cl)cc2)CC1)c1ccc2[nH]c3c(c2c1)CN(Cc1ccc(C(F)(F)F)cc1)CC3 [2-32, N-(1-(4-chlorophenyl-sulfonyl)piperidin-4-yl)-2-(4-(trifluoro-methyl)benzyl)-2,3,4,5-tetrahydro-1H-pyrido [4,3-b]indole-8-carboxamide]",EC50 (compounds of Table 2 (Table 7)): 1000 to 5000 nM
